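Briefly, cells in 96-well plates were exposed to five compound concentrations for 48 h, and endpoints were estimated by linear interpolation. GI50: concentration for 50% inhibition of growth.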 Active and inactive are the calls of the source. Cut-off read from the data, not from the text of the source: active = GI50 up to about 1.1 µM and inactive = higher.
Assays:
Experiment in all cases: inhibition of tumour cell growth, NCI panel, 48 h
CAKI-1 = tested on: CAKI-1
SK-OV-3 = tested on: SK-OV-3
CCRF-CEM = tested on: CCRF-CEM
UACC-257 = tested on: UACC-257
SNB-19 = tested on: SNB-19
T47D = tested on: T47D
HT-29 = tested on: HT-29
HCT-116 = tested on: HCT-116
HCT-15 = tested on: HCT-15
Hs-578T = tested on: Hs-578T
NCI-H226 = tested on: NCI-H226
RXF 393 = tested on: RXF 393
BT-549 = tested on: BT-549
786-0 = tested on: 786-0
SK-MEL-28 = tested on: SK-MEL-28
UO-31 = tested on: UO-31
MOLT-4 = tested on: MOLT-4
UACC-62 = tested on: UACC-62
EKVX = tested on: EKVX
LOX IMVI = tested on: LOX IMVI

| Structure (SMILES) | GI50 (CAKI-1) | GI50 (SK-OV-3) | GI50 (CCRF-CEM) | GI50 (UACC-257) | GI50 (SNB-19) | GI50 (T47D) | GI50 (HT-29) | GI50 (HCT-116) | GI50 (HCT-15) | GI50 (Hs-578T) | GI50 (NCI-H226) | GI50 (RXF 393) | GI50 (BT-549) | GI50 (786-0) | GI50 (SK-MEL-28) | GI50 (UO-31) | GI50 (MOLT-4) | GI50 (UACC-62) | GI50 (EKVX) | GI50 (LOX IMVI) |
| --- | --- | --- | --- | --- | --- | --- | --- | --- | --- | --- | --- | --- | --- | --- | --- | --- | --- | --- | --- | --- |
| C[C@]12CC[C@H](O)C[C@@H]1CC[C@@H]1[C@@H]2CC[C@]2(C)[C@@H](C3=CC(=O)OC3)CC[C@]12O | 1.81 µM (inactive) | 3.21 µM (inactive) | 0.76 µM (active) | 4.03 µM (inactive) | 4.95 µM (inactive) | 3.77 µM (inactive) | 3.44 µM (inactive) | 1.73 µM (inactive) | 1.86 µM | 4.21 µM (inactive) | 11.2 µM (inactive) | 0.736 µM (active) | 1.88 µM (inactive) | 1.95 µM (inactive) | 7.5 µM (inactive) | 2.37 µM (inactive) | 0.359 µM (active) | 3.55 µM (inactive) | 2.38 µM (inactive) | 2.59 µM (inactive) |
| Clc1ccc(-c2c(C3=NCCCN3)nnn2-c2ccc(Cl)cc2)cc1 | 60.1 µM (inactive) | > 76.6 µM (inactive) | 31.8 µM (inactive) | 22.3 µM (inactive) | > 68.7 µM (inactive) | 31.3 µM (inactive) | 21.3 µM (inactive) | 28.9 µM (inactive) | 75.5 µM | 26.9 µM (inactive) | 60.3 µM (inactive) | 17.7 µM (inactive) | > 55.1 µM (inactive) | 40.9 µM (inactive) | 17.1 µM (inactive) | 39.1 µM (inactive) | 27.4 µM (inactive) | 18.5 µM (inactive) | 63.1 µM (inactive) | 21.1 µM (inactive) |
| CSc1nnnc2ccccc12 | > 100 µM (inactive) | > 100 µM (inactive) | 51.4 µM (inactive) | > 100 µM (inactive) | > 100 µM (inactive) | 85.1 µM (inactive) | > 100 µM (inactive) | > 100 µM (inactive) | > 100 µM | > 100 µM (inactive) | > 100 µM (inactive) | > 100 µM (inactive) | > 100 µM (inactive) | > 100 µM (inactive) | > 100 µM (inactive) | > 100 µM (inactive) | > 100 µM (inactive) | > 100 µM (inactive) | > 100 µM (inactive) | > 100 µM (inactive) |
| O=C1C(=C(I)I)c2ccccc2-c2ccccc21 | 2.82 µM (inactive) | 14.8 µM (inactive) | 0.386 µM (active) | 2.1 µM (inactive) | 14.4 µM (inactive) | 2.3 µM (inactive) | 3.21 µM (inactive) | 2.32 µM (inactive) | 2.47 µM | 7.83 µM (inactive) | 19.7 µM (inactive) | 1.68 µM (inactive) | 6.12 µM (inactive) | 2.07 µM (inactive) | 2.59 µM (inactive) | 2.1 µM (inactive) | 0.883 µM (active) | 4.52 µM (inactive) | 3 µM (inactive) | 2.08 µM (inactive) |
| CC(C)(CO)CNc1cc(=O)[nH]c(N)n1 | > 100 µM (inactive) | > 100 µM (inactive) | > 100 µM (inactive) | > 100 µM (inactive) | > 100 µM (inactive) | > 100 µM (inactive) | > 100 µM (inactive) | > 100 µM (inactive) | > 100 µM | > 100 µM (inactive) | > 100 µM (inactive) | > 100 µM (inactive) | > 100 µM (inactive) | > 100 µM (inactive) | > 100 µM (inactive) | > 100 µM (inactive) | > 100 µM (inactive) | > 100 µM (inactive) | > 100 µM (inactive) | > 100 µM (inactive) |
| CCCCN1C(=O)c2c(-c3sccc3N)sc(-c3sccc3N)c2C1=O | 23.8 µM (inactive) | 10.6 µM (inactive) | 4.05 µM (inactive) | 56.1 µM (inactive) | 18.9 µM (inactive) | 14.2 µM (inactive) | 14.2 µM (inactive) | 21.7 µM (inactive) | > 34.9 µM | 16.9 µM (inactive) | 0.713 µM (active) | 12.6 µM (inactive) | 29.4 µM (inactive) | 7.85 µM (inactive) | 7.98 µM (inactive) | 6.84 µM (inactive) | 2.8 µM (inactive) | 19.3 µM (inactive) | 26.9 µM (inactive) | 30.7 µM (inactive) |
| O=C1C(Cl)=CC2(C=C1Cl)CCNC1=C2C(=O)c2nc[nH]c2C1=O | 64.4 µM (inactive) | > 100 µM (inactive) | 30.8 µM (inactive) | 18.6 µM (inactive) | 32.3 µM (inactive) | 99.8 µM (inactive) | 29.6 µM (inactive) | 26 µM (inactive) | 46 µM | > 100 µM (inactive) | 75.2 µM (inactive) | 23.2 µM (inactive) | 26.3 µM (inactive) | 41.3 µM (inactive) | 33.7 µM (inactive) | > 100 µM (inactive) | 26.9 µM (inactive) | 18.3 µM (inactive) | 51.8 µM (inactive) | 20 µM (inactive) |
| N#Cc1c(N)n(-c2nc3ccccc3s2)c(=O)c2cc([N+](=O)[O-])ccc12 | 20.9 µM (inactive) | 25.4 µM (inactive) | 0.0453 µM (active) | 23.4 µM (inactive) | 17.7 µM (inactive) | 21.8 µM (inactive) | 3.5 µM (inactive) | 4.44 µM (inactive) | 4.04 µM | 9.16 µM (inactive) | 6.93 µM (inactive) | 7.62 µM (inactive) | 21.2 µM (inactive) | 21.7 µM (inactive) | 26.7 µM (inactive) | 21.7 µM (inactive) | 5.46 µM (inactive) | 21.3 µM (inactive) | 23.3 µM (inactive) | 7.03 µM (inactive) |
| CC(C#N)(NO)C(C)(C#N)NO (stereo not given) | > 100 µM (inactive) | > 100 µM (inactive) | > 100 µM (inactive) | > 100 µM (inactive) | > 100 µM (inactive) | > 100 µM (inactive) | > 100 µM (inactive) | > 100 µM (inactive) | > 100 µM | > 100 µM (inactive) | 97.9 µM (inactive) | > 100 µM (inactive) | > 100 µM (inactive) | > 100 µM (inactive) | > 100 µM (inactive) | > 100 µM (inactive) | > 100 µM (inactive) | > 100 µM (inactive) | > 100 µM (inactive) | > 100 µM (inactive) |
| CCOP(=O)(OCC)C(Nc1cccc(F)c1)c1ccccc1 (stereo not given) | > 100 µM (inactive) | > 100 µM (inactive) | 47.1 µM (inactive) | 45.1 µM (inactive) | > 100 µM (inactive) | 22.7 µM (inactive) | 58.1 µM (inactive) | 44.1 µM (inactive) | 44.4 µM | 35.9 µM (inactive) | 93.5 µM (inactive) | 25.2 µM (inactive) | > 100 µM (inactive) | > 100 µM (inactive) | > 100 µM (inactive) | 44.8 µM (inactive) | 30 µM (inactive) | 63 µM (inactive) | 40.5 µM (inactive) | 75.7 µM (inactive) |
| CCOP(=O)(OCC)C(Nc1cccc(F)c1)c1ccc(N(C)C)cc1 (stereo not given) | > 100 µM (inactive) | > 100 µM (inactive) | 90.4 µM (inactive) | 76.9 µM (inactive) | > 100 µM (inactive) | 34.8 µM (inactive) | 59.2 µM (inactive) | 48.5 µM (inactive) | 78.2 µM | > 100 µM (inactive) | > 100 µM (inactive) | > 100 µM (inactive) | > 100 µM (inactive) | > 10 µM (inactive) | > 100 µM (inactive) | > 100 µM (inactive) | 40.4 µM (inactive) | 50.4 µM (inactive) | 99.1 µM (inactive) | 70.5 µM (inactive) |
| C=C1C(=O)OC2C3C(=C)[C@@H](OC(C)=O)CC3C(C)=CC(OC(=O)C(C)(OC(C)=O)C(C)OC(C)=O)[C@@H]12 (stereo not given in full) | 10.6 µM (inactive) | 83.2 µM (inactive) | 3.25 µM (inactive) | 14.9 µM (inactive) | 85.7 µM (inactive) | 23.3 µM (inactive) | 14.4 µM (inactive) | 11 µM (inactive) | 12.8 µM | 23.4 µM (inactive) | 23.8 µM (inactive) | 12.3 µM (inactive) | 18.5 µM (inactive) | 16.6 µM (inactive) | 15.1 µM (inactive) | 16.4 µM (inactive) | 6.56 µM (inactive) | 13.3 µM (inactive) | 16.6 µM (inactive) | 13.4 µM (inactive) |
| C[n+]1ccc(/C2=C3\C=CC(=N3)/C(c3cc[n+](C)cc3)=c3/cc/c([nH]3)=C(\c3cc[n+](C)cc3)C3=N/C(=C(/c4cc[n+](C)cc4)C4C=CC2N4)C=C3)cc1 | > 100 µM (inactive) | > 85.3 µM (inactive) | > 75.7 µM (inactive) | > 48.5 µM (inactive) | > 100 µM (inactive) | > 100 µM (inactive) | 51.9 µM (inactive) | > 81.1 µM (inactive) | > 100 µM | > 80 µM (inactive) | > 75.7 µM (inactive) | > 91.4 µM (inactive) | > 100 µM (inactive) | > 100 µM (inactive) | > 100 µM (inactive) | > 100 µM (inactive) | 95.3 µM (inactive) | > 100 µM (inactive) | > 100 µM (inactive) | > 100 µM (inactive) |
| COC(=O)c1cc(C(=CCC[C@H]2CC[C@@]3(C)C(CCC4C3CC[C@@]3(C)C4CC[C@@H]3C(C)CCCC(C)C)C2)c2cc(Cl)c(O)c(C(=O)OC)c2)cc(Cl)c1O (stereo not given in full) | > 10 µM (inactive) | > 10 µM (inactive) | > 10 µM (inactive) | > 10 µM (inactive) | > 10 µM (inactive) | > 10 µM (inactive) | > 10 µM (inactive) | > 10 µM (inactive) | > 10 µM | > 10 µM (inactive) | > 10 µM (inactive) | > 10 µM (inactive) | > 10 µM (inactive) | > 10 µM (inactive) | > 10 µM (inactive) | > 10 µM (inactive) | > 10 µM (inactive) | > 10 µM (inactive) | > 10 µM (inactive) | > 10 µM (inactive) |

From ChEMBL document CHEMBL1201862, “PubChem BioAssay data set” (2004)
